Results taken from patent US5977442A, “Salicylic acid induced map kinase and its use for enhanced disease resistance in plants” (priority 1997, dated 1999).

Experiments:
[1] = tested on: 58 kDa, 52 kDa, and 40 kDa kinases; conditions: 1 mM and 2 mM
Experimental: (§1) The cell suspension culture was derived from callus tissue originated from leaves of Nicotiana tabacum cv Xanthi nc and grown in MS medium supplemented with 1 mg/L α-naphthaleneacetic acid, 0.1 mg/L 2,4-dichlorophenoxyacetic acid, 0.1 mg/L benzyladenine, and 3% sucrose. Log phase cells were used three days after a 1:10 dilution. Treatment with H2 O2, SA and its analogues was performed in the original flasks in the dark to avoid any stresses associated with transfer. At various times, 10 mL cells (approximately 0.2 to 0.3 g fresh weight of cells) were harvested by filtration. The cells were quickly frozen in liquid nitrogen and stored at -80° C. until analysis.
Leaf discs were first ground to a fine powder in 1.5 ml microcentrifuge tubes using small plastic pestles. […]
The in-gel kinase assay was performed as described previously (Zhang et al., 1993). […] Quantitation of the relative kinase activities were done using a phosphoimager (Molecular Dynamics Inc., CA).

[2] = tested on: phosphotyrosine-containing 48 kDa protein; test: Immunoblot analysis with anti-phosphotyrosine antibody 4G10 of treated cell extracts; format: cell-based, Nicotiana tabacum cv Xanthi nc; conditions: 250 μM SA or 2 mM H2 O2; FIG. 4A
Experimental: as §1
(§2) Protein extracts were separated by SDS-PAGE on 10% acrylamide gels, and the proteins were transferred to nitrocellulose membrane by semidry electroblotting. The membrane was blocked for 2 hours in TBS buffer (20 mM Tris, pH 7.5, 150 mM NaCl, 0.1% Tween 20, 0.1 mM Na3 VO4) with 10% BSA at room temperature, and then incubated with the phosphotyrosine-specific monoclonal antibody 4G10 (Upstate Biotechnology Incorporated, NY) in TBS buffer with BSA for 1 hr. After the blot was incubated with horseradish peroxidase-conjugated secondary antibody, the complexes were visualized using an enhanced chemiluminescence kit (DuPont, MA) following the manufacture's instructions.

[3] = tested on: 200 kDa and 75 kDa kinase activity bands; conditions: long exposure of autoradiogram
Experimental: as §1
The in-gel kinase assay was performed as described previously (Zhang et al., 1993). Extracts containing 10 μg protein were electrophoresed on 10% SDS-polyacrylamide gels imbedded with either 1 mg/mL of casein, 1 mg/mL histone (Type III-SS, Sigma, MO), 1 mg/mL BSA, or 0.25 mg/mL of MBP in the separating gel as substrate for the kinase. After electrophoresis, SDS was removed by washing the gel with washing buffer (25 mM Tris, pH 7.5, 0.5 mM DTT, 0.1 mM Na3 VO4, 5 mM NaF, 0.5 mg/mL BSA, 0.1% Triton X-100 [v/v]). The buffer was changed three times, each for 30 minutes at room temperature. […] Quantitation of the relative kinase activities were done using a phosphoimager (Molecular Dynamics Inc., CA).

p48 SIP kinase [4] = test: In-gel kinase activity assay (MBP substrate) in extracts of treated tobacco suspension cells: activation of p48 SIP kinase; format: cell-based, Nicotiana tabacum cv Xanthi nc
Experimental: as §1
Leaf discs were first ground to a fine powder in 1.5 ml microcentrifuge tubes using small plastic pestles. After adding 0.25 mL extraction buffer (100 mM Hepes, pH 7.5, 5 mM EDTA, 5 mM EGTA, 10 mM DTT, 10 mM Na3 VO4, 10 mM NaF, 50 mM β-glycerolphosphate, 1 mM phenylmethylsulfonyl fluoride, 5 μg/mL antipain, 5 μg/mL aprotinin, 5 μg/mL leupeptin, 10% glycerol, 7.5% polyvinylpolypyrrolidone), the mixture was sonicated for 15 seconds with a W-375 Sonicator (Heat System-Ultrasonics, Inc., N.Y.) fitted with a microprobe at setting 4 and 80% duty cycle. To prepare extracts from treated cells, cells were mixed with two volumes (w/v) of extraction buffer and were then sonicated twice for 15 seconds each in 1.5 mL microcentrifuge tube. After centrifugation at 13,000 rpm for 20 minutes, supernatants were transferred into clean tubes, quickly frozen in liquid nitrogen and stored at -80° C.
The in-gel kinase assay was performed as described previously (Zhang et al., 1993). Extracts containing 10 μg protein were electrophoresed on 10% SDS-polyacrylamide gels imbedded with either 1 mg/mL of casein, 1 mg/mL histone (Type III-SS, Sigma, MO), 1 mg/mL BSA, or 0.25 mg/mL of MBP in the separating gel as substrate for the kinase. After electrophoresis, SDS was removed by washing the gel with washing buffer (25 mM Tris, pH 7.5, 0.5 mM DTT, 0.1 mM Na3 VO4, 5 mM NaF, 0.5 mg/mL BSA, 0.1% Triton X-100 [v/v]). The buffer was changed three times, each for 30 minutes at room temperature. The kinases were allowed to renature in 25 mM Tris, pH 7.5, 1 mM DTT, 0.1 mM Na3 VO4, 5 mM NaF at 4° C. overnight with three changes of buffer. The gel was then incubated at room temperature in 30 mL reaction buffer (25 mM Tris, pH 7.5, 2 mM EGTA, 12 mM MgCl2, 1 mM DTT, 0.1 mM Na3 VO4) with 200 nM ATP plus 50 μCi γ-^32 P-ATP (3000 Ci/mmole) for 60 minutes. The reaction was stopped by transferring the gel into 5% TCA (w/v)/1% NaPPi (w/v). The unincorporated γ-^32 P-ATP was removed by washing in the same solution for at least 6 hours with 5 changes of buffer. The gel was dried onto 3 MM paper and exposed to Kodak XAR-5 film. Prestained size markers (Bio-Rad, CA) were used to calculate the size of the kinases. Quantitation of the relative kinase activities were done using a phosphoimager (Molecular Dynamics Inc., CA).

[5] = tested on: tyrosine-phosphorylated proteins; conditions: in response to H2 O2
Experimental: as §1, §2

[6] = tested on: the two major H2 O2 -scavenging enzymes; conditions: Chen et al., 1993; Durner and Klessig, 1995; cited from earlier work
44 kDa kinase = test: Activation of 44 kDa kinase in tobacco leaves; format: in vivo, N. tabacum cv Xanthi nc; conditions: SA treatment of tobacco plants
Experimental: (§3) Tobacco plants (N. tabacum cv Xanthi nc) were grown at 22° C. in a growth room programmed for a 14-hr light cycle. Plants approximately 7-8 weeks old were used for experiments. For temperature-shift experiments, plants were transferred to a 32° C. chamber one day before inoculation. TMV strain U1 was used at a concentration of 1 μg/mL in 50 mM phosphate buffer, pH 7.0; mock inoculation was done with buffer only. After 48 hours infected plants were shifted back to 22° C. and leaf discs (1 cm in diameter) were taken at the indicated times. For water or SA treatment, one leaf from each plant was injected with solution using a syringe until the entire leaf was infiltrated.

[7] = tested on: kinase activities in extracts from SA-treated cells (casein, histone, or BSA as substrate); test: In-gel kinase activity assay with casein, histone or BSA as substrate in extracts of treated tobacco suspension cells; format: cell-based, Nicotiana tabacum cv Xanthi nc
p48 SIP kinase [8] = test: Activation of p48 SIP kinase in tobacco leaves after injection; format: in vivo, N. tabacum cv Xanthi nc
Experimental: as §3

SMILES: OO [H2 O2, hydrogen peroxide]
- activation of other kinases (58, 52, 40 kDa) [1]: induced several kinase activities
- tyrosine phosphorylation of 48 kDa protein [2]: prolonged phosphorylation of tyrosine residue(s) on a 48 kDa protein
- weakly induced kinase activity bands at 200 kDa and 75 kDa [3]: weakly induced
- activation of p48 SIP kinase by H2O2 (p48 SIP kinase [4]; 1 mM and 2 mM): induced several kinase activities including the p48 SIP kinase
- kinase activity at 60 minutes after addition (p48 SIP kinase [4]; 60 minutes after addition of H2 O2): remained at peak levels
- duration of SIP kinase activation relative to SA (p48 SIP kinase [4]; tobacco suspension cells, data not shown for analogues): more sustained compared to that induced by SA
- number of proteins phosphorylated on tyrosine residues [5]: at least four

SMILES: O=C(O)c1ccccc1O [SA, salicylic acid]
- inhibition of the two major H2O2-scavenging enzymes [6]: can inhibit the two major H2 O2 -scavenging enzymes
- activation of p44 kinase (44 kDa kinase): also evident after SA treatment of tobacco plants
- tyrosine phosphorylation of 48 kDa protein [2]: transient increase in the level of a phosphotyrosine-containing 48 kDa protein
- increase in kinase activities with casein, histone, or BSA as substrate [7]: no increases in kinase activities were detected
- activation of p48 SIP kinase by second injection (p48 SIP kinase [8]; leaves first injected with water, then SA): dramatic activation of the p48 SIP kinase
- activation of kinase in leaves, first (rapid) peak: return to basal level (p48 SIP kinase [8]; single injection 500 μM SA): about 30 minutes
- time of second, more prolonged peak of kinase activation (p48 SIP kinase [8]; single injection 500 μM SA): approximately 3 hours
- time to peak of p48 SIP kinase activation (p48 SIP kinase [4]; 250 μM SA, tobacco suspension cells): ≤ 5 min
- activation of 48 kDa (p48 SIP) kinase (p48 SIP kinase [4]; 250 μM, tobacco suspension cells, MBP substrate): activated a 48 kDa kinase
- reactivation of SIP kinase by second addition of SA (p48 SIP kinase [4]; second addition up to 4 hr after initial treatment): did not reactivate the SIP kinase
- minimum concentration of SA required to activate p48 kinase (p48 SIP kinase [4]; tobacco suspension cells): 100 µM
- concentration at which maximum p48 kinase activity obtained (p48 SIP kinase [4]; tobacco suspension cells, FIG. 1E): 500 µM
